Measurements from patent US6448405B1, “Steroid receptor modulator compounds and methods” (Ligand Pharmaceuticals Incorporated, priority 1994, dated 2002).

How the values were obtained:
[1] = test system: ventral prostates (VP) and seminal vesicles (SV) of immature castrated rats; assay: Immature castrated male rat model (antiandrogen activity); assay type: in vivo; conditions: co-administered with 0.1 mg of TP
Procedure: Since the male sex organs are the tissues most responsive to modulation of androgen activity, this model is used to determine the androgen-dependent growth of the sex accessory organs in immature castrated rats.
Five days after surgery, animals groups were dosed for 3 days as follows:
At the end of the 3-day treatment, the animals were sacrificed, and the ventral prostates (VP) and seminal vesicles (SV) were collected and weighed. To compare data from different experiments, the sexual organ weights were first standardized as mg per 100 g of body weight, and the increase in organ weight induced by TP was considered as the maximum increase (100%). Super-anova (one factor) was used for statistical analysis.
The gain and loss of sexual organ weights reflect the changes of cell number (DNA content) and cell mass (protein content), depending upon the serum androgen concentration. […] Therefore, measurement of organ wet weights is sufficient to indicate the bioactivity of androgens and androgen antagonists.

[2] = biological target: T1, human glucocorticoid receptor (GR) (Homo sapiens, UniProt P04150); assay: Co-transfection assay, GR antagonist activity, CV-1 cells (pRShGR); assay type: cell-based; conditions: antagonist mode; for GR Antagonist CV-1 Cells Efficacy (%): % maximal inhibition; for IC50: read-out: GR Antagonist CV-1 Cells Potency
T1 construct: expressed in transfected cells; host or cells: CV-1 cells, transient transfection
T1 sequence (P04150 1-777): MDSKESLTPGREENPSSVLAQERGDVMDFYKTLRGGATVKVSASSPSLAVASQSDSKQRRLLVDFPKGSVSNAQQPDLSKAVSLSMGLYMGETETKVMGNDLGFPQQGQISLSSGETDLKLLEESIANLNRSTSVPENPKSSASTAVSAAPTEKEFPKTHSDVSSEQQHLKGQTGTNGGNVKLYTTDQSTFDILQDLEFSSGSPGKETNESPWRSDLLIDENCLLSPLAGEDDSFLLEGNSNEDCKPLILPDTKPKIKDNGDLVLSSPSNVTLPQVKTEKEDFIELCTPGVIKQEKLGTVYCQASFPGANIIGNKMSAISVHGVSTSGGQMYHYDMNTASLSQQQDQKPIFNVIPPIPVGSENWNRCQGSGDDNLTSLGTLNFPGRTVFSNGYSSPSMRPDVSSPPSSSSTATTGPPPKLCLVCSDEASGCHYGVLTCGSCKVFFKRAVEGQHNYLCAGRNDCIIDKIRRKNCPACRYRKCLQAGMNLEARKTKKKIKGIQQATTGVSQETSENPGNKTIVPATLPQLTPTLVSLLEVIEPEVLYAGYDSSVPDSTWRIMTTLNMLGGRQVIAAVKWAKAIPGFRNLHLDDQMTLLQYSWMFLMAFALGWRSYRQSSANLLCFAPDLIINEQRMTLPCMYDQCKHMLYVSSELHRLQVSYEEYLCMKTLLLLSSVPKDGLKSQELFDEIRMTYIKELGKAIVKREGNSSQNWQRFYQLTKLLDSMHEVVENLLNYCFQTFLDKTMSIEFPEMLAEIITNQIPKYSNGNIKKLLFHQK

[3] = biological target: T2, human mineralocorticoid receptor (MR) (Homo sapiens, UniProt P08235); assay: Co-transfection assay, MR antagonist activity, CV-1 cells (pRShMR); assay type: cell-based; conditions: antagonist mode; for MR Antagonist CV-1 Cells Efficacy (%): % maximal inhibition; for IC50: read-out: MR Antagonist CV-1 Cells Potency
T2 construct: expressed in transfected cells; host or cells: CV-1 cells, transient transfection
T2 sequence (P08235 1-984): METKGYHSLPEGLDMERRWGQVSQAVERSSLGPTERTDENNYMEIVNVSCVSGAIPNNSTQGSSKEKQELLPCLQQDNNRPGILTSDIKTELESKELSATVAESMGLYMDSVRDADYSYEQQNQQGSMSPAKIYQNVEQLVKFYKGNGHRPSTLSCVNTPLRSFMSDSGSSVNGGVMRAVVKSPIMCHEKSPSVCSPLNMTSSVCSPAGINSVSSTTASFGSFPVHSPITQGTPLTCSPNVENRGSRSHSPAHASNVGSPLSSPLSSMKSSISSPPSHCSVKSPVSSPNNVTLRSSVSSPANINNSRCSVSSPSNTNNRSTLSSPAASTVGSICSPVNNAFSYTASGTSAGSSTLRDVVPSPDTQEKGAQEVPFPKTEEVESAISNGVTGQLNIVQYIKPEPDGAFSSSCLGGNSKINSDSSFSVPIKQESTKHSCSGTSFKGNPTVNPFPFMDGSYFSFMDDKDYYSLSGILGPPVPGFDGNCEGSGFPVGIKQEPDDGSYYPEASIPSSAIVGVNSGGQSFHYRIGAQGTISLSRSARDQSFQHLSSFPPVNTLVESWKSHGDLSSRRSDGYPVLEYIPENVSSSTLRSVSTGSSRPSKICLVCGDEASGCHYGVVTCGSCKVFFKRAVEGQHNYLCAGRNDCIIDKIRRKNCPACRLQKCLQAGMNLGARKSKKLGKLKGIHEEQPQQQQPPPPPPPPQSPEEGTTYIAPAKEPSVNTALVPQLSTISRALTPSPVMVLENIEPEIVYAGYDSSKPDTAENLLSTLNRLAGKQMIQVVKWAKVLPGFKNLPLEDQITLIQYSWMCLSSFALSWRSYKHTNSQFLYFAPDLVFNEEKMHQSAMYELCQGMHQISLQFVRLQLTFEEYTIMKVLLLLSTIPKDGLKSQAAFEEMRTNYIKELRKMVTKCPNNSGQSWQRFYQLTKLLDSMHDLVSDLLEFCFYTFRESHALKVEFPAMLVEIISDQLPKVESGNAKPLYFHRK

[4] = biological target: T3, human glucocorticoid receptor alpha (GRα) (Homo sapiens, UniProt P04150); assay: GR binding assay, baculovirus extract, [3H] dexamethasone; conditions: competition with [3H] dexamethasone, 4° C., 16 hours; read-out: GR Binding K1
T3 construct: made in house; crude extract used
T3 sequence (P04150 1-777): T1 sequence (P04150 1-777)

[5] = biological target: T4, human PR-B (Homo sapiens, UniProt P06401); assay: Co-transfection assay, PR agonist and antagonist activity, CV-1 cells; assay type: cell-based;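 also: luciferase reporter driven by a hormone response element, co-transfected with human PR-B into CV-1 monkey kidney cells, agonists raise and antagonists lower the reporter signal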
T4 construct: expressed in transfected cells; host or cells: CV-1 cells (African green monkey kidney fibroblasts), transient transfection
T4 sequence (P06401 1-933): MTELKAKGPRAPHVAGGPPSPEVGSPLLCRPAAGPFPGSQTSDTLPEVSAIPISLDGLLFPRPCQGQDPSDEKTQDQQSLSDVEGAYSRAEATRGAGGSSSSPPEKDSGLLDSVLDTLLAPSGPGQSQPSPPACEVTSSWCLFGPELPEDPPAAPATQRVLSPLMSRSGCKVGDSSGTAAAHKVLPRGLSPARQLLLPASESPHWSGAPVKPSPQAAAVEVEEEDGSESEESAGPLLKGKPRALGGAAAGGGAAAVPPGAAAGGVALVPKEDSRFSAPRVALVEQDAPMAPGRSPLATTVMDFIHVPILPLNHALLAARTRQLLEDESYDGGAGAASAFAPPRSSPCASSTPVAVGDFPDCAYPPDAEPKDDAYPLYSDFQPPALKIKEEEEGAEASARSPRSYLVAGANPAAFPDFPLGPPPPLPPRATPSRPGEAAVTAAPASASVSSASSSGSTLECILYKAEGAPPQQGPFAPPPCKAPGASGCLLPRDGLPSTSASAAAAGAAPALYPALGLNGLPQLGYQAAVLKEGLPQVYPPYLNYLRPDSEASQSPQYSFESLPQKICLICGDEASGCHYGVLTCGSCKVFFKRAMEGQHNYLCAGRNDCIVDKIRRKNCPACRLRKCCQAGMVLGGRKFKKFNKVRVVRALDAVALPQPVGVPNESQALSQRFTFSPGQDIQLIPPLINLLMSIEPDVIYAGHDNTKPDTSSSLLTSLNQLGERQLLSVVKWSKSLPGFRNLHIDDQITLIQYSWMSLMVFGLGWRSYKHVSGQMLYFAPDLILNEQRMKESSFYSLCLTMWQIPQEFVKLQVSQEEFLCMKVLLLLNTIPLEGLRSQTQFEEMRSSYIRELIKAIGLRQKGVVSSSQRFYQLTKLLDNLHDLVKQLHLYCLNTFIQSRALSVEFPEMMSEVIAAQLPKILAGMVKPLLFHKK

[6] = biological target: T5, human progesterone receptor A form (PR-A) (Homo sapiens, UniProt P06401); assay: PR binding assay, baculovirus extract, [3H] progesterone; conditions: read-out: PR Binding Ki
T5 sequence (P06401 1-769 isoform P06401-2): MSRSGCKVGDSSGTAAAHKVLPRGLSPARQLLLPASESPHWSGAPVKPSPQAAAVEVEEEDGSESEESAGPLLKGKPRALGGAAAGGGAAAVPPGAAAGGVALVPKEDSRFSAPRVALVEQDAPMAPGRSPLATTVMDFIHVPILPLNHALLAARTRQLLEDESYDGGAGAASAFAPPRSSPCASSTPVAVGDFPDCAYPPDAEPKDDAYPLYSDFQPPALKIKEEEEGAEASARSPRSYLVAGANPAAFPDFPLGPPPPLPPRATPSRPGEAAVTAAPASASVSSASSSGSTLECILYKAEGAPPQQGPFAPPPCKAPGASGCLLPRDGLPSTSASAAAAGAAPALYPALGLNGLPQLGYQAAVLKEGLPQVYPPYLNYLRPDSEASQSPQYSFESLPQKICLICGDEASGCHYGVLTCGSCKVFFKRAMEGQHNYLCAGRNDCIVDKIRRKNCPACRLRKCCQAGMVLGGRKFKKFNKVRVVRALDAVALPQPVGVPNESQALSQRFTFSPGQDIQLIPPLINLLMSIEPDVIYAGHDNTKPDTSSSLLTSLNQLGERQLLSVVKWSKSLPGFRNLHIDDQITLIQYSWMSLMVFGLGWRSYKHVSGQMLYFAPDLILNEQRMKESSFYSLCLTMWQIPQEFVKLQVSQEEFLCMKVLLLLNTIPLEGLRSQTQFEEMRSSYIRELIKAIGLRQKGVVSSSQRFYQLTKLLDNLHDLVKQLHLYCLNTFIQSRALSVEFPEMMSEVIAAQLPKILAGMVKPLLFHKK

[7] = test system: pregnancy (implantation sites) in female mice (ICR strain); assay: Implantation assay (antiprogestin activity); assay type: in vivo, mouse; conditions: R5020 1.0 mg per day
Procedure: Mating was assumed to have taken place at 02.00 h, time 0.
Compound 150 was dissolved in sesame oil (50 mg/mL) and kept at room temperature before use. […] Control animals received an equivuivalent volume of the control vehicle, sesame oil, alone.
The animals were sacrificed, and autopsies were carried out at Day 8 of pregnancy, and numbers of implantation sites counted and recorded, and are shown in Table 7 below. Each group consisted of between 5 and 7 animals.

[8] = test system: PR, AR, ER, GR and MR; assay: cis-trans or co-transfection assay, steroid receptor panel (cross-reactivity); assay type: cell-based, human; conditions: as seen in the Tables

SMILES: CC1=CC(C)(C)Nc2cc3c(cc21)c(C(F)(F)F)cc(=O)n3C [Compound 261, 1,2-Dihydro-2,2,4,9-tetramethyl-6-trifluoromethyl-8-pyridono[5,6-g]quinoline]
- AR antagonist activity: suppression of testosterone-mediated increases in the weights of VP and SV [1]: exhibited AR antagonist activity

SMILES: CC1=CC(C)(C)Nc2ccc3c(c21)C(c1ccsc1)Oc1ccccc1-3 (racemic) [Compound 170, (R/S)-1,2-Dihydro-2,2,4-trimethyl-5-(thiophen-3-yl)-5H-chromeno[3,4-f]quinoline]
- GR Antagonist CV-1 Cells Efficacy (%) ([2]; Table 4): 94%
- IC50 ([2]; dexamethasone at its EC50): 1550 nM
- MR Antagonist CV-1 Cells Efficacy (%) ([3]; Table 4): 84%
- IC50 ([3]; aldosterone at its EC50): 410 nM
- Ki [4]: 47 nM

SMILES: CC1=CC(C)(C)Nc2ccc3c(c21)C(c1ccc(C)cc1)Oc1ccccc1-3 (racemic) [Compound 167, (R/S)-1,2-Dihydro-2,2,4-trimethyl-5-(4-Methylphenyl)-5H-chromeno[3,4-f]quinoline]
- GR Antagonist CV-1 Cells Efficacy (%) ([2]; Table 4): 96%
- GR Antagonist CV-1 Cells Efficacy (%) ([2]; dexamethasone at its EC50): 96%
- IC50 ([2]; dexamethasone at its EC50): 855 nM
- MR Antagonist CV-1 Cells Efficacy (%) ([3]; Table 4): 61%
- MR Antagonist CV-1 Cells Efficacy (%) ([3]; aldosterone at its EC50): 61%
- IC50 ([3]; aldosterone at its EC50): 2000 nM
- Ki [4]: 21 nM

SMILES: CC1=CC(C)(C)Nc2ccc(-c3cccc(C#N)c3)cc21 [Compound 150, 6-(3-Cyanophenyl)-1,2-dihydro-2,2,4-trimethylquinoline]
- EC50 ([5]; agonist mode, EC50, read-out: PR Agonist CV-1 Cells Potency): 3200 nM
- IC50 ([5]; read-out: PR Antagonist CV-1 Cells Potency): 24 nM
- Ki [6]: 17 nM
- effect on pregnancy rate with simultaneous injection of PR agonist R5020 [7]: reversed to the control level
- steroid receptor selectivity profile [8]: highly selective PR antagonists

SMILES: CC1=CC(C)(C)Nc2ccc3c(c21)C(c1cc(F)cc(Br)c1)Oc1ccccc1-3 (racemic) [Compound 351, (R/S)-5-(3-Bromo-5-Fluorophenyl)-1,2-dihydro-2,2,4-trimethyl-5H-chromeno[3,4-f]quinoline]
- melting point: 82 to 84 °C

SMILES: CC1=CC(C)(C)Nc2c1cc1c(C(F)(F)F)cc(=O)[nH]c1c2C [Compound 255, 1,2-Dihydro-2,2,4,10-tetramethyl-6-trifluoromethyl-8-pyridono[5,6-g]quinoline]
- AR antagonist activity: suppression of testosterone-mediated increases in the weights of VP and SV [1]: exhibited AR antagonist activity

SMILES: C=C1CC(C)(C)Nc2ccc3c(c21)C(c1cccc(F)c1)Oc1ccccc1-3 (racemic) [Compound 192, (R/S)-5-(3-Fluorophenyl)-1,2,3,4-tetrahydro-2,2-dimethyl-4-methylidene-5H-chromeno[3,4-f]quinoline]
- GR Antagonist CV-1 Cells Efficacy (%) ([2]; Table 4): 81%
- IC50 ([2]; dexamethasone at its EC50): 280 nM
- MR Antagonist CV-1 Cells Efficacy (%) ([3]; Table 4): 70%
- IC50 ([3]; aldosterone at its EC50): 320 nM
- Ki [4]: 214 nM
